These results are taken from patent US20220064214A1, “NOVEL PEPTIDES AND USES THEREOF” (CENNA BIOSCIENCES INC., priority 2019, published 2022).

The subject of one data set is Aβ40. The experiment in a line: Efficacy in reducing Aβ40 in rat plasma (ELISA). As to conditions: 10 mg/kg SC; for reduction in Aβ40: rat plasma; for Percent Decrease in Aβ 40 in Rat Plasma: mean of 3 rats, negative = decrease. The class given is in vivo. As to the method:
(§1) Blood was collected through jugular vein cannulas, and the samples were collected into tubes with K2EDTA. After centrifuging at a temperature of 2 to 8° C. at 4,000×g for 5 minutes, the resulting plasma was split into equal aliquots, frozen, and stored at −60 to −80° C. One aliquot was for PK analysis and the other was for Aβ analysis (see Example 4).
Rats (n=3 per peptide) were administered with P8, 8M1D, or 8M2D (10 mg/kg) subcutaneously, and plasma were collected at 0, 6, 12, and 24 h after dosing and Aβ40 analysis was carried out by ELISA (Invitrogen).
On the technique in general: An ELISA detects its analyte on a solid surface through an enzyme-linked reagent.

Data set [1] is described as follows: Pharmacokinetics study in rats, CSF. The class given is in vivo. To be noted: rat; for CSF concentration, Mean IV: 10 mg/kg IV; for CSF concentration, Mean SC: 10 mg/kg SC. Set-up: CSF concentration, Mean IV / CSF concentration, Mean SC: unit not given here. As to the method:
(§2) An in-vivo study was carried out in rats to determine the pharmacokinetics (PK) of peptides P8, 8M1D and 8M2D in plasma and CSF. Each peptide was assessed through two dosage routes, intravenous (IV) and subcutaneous (SC). Three rats were assigned to each dose group with each peptide. Total of twelve rats per peptide were used.
CSF collection was performed by first anesthetizing animals at specified time points (see Table 5) with a mixture of 80 mg/kg ketamine and 8 mg/kg xylazine. The depth of anesthesia was monitored by toe pinches. CSF was collected via the cisterna magna (˜0.05 mL), and it was split into equal aliquots, frozen, and stored at −60 to −80° C.

Data set [2] can be described thus: Metabolic stability of peptides in fresh human plasma (LC/MS/MS). As to conditions: for rate at which metabolized in fresh human plasma (in words): compared among P8, 8M1 and 8M1D; for % Remaining / remaining at 3 h, 1 µM / remaining at 8 h, 1 µM / remaining at 24 h, 1 µM: fresh human plasma; for % Remaining: 0 h incubation; for remaining at 3 h, 1 µM: 3 h incubation; for remaining at 8 h, 1 µM: 8 h incubation; for remaining at 24 h, 1 µM: 24 h incubation. Format: in vitro ADME. As to the method: P8, 8M1, and 8M1D were generated according to Example 1 with purities ranging from 98.0% to 99.0%. A primary 1.00 mM stock solution was prepared in either acetonitrile or acetonitrile:water (1:1, v/v) for each peptide. A 0.200 mM working stock was made from the primary stock in acetonitrile:water (1:1, v/v), which was used for the reactions. The primary and working stock solutions were stored at −20° C. when not in use, and they were kept at room temperature for as short a time as possible when in use. Fresh human plasma were maintained by adding sodium heparin as an anticoagulant.
The incubation procedures started when 5.00 μL of 0.2 mM (working stock solutions) of different peptides were added to 0.995 mL of fresh human plasma in a 1.7-mL snap tube. After 3, 8 and 24 hours of incubation, duplicate 50.0 μL aliquots of plasma were removed and placed into extraction tubes containing 150 μL of methanol, which served to quench any reactions, and thus incubations were ended. For each time point, the aliquotes were immediately extracted by vortex mixing and centrifugation. Resulting supernates were stored in High-Performance Liquid Chromatography (HPLC) vials and analyzed by LC/MS/MS after all samples were extracted. Valacyclovir was used as a positive control.
LC/MS/MS analysis of the incubation solutions was conducted by initial separation of the test article peaks using chromatography prior to detection by the mass spectrometer. The LC/MS system was comprised of a HPLC coupled with a TQS-Micro or Quattro Premier (Waters, Milford, Mass.). The mobile phase was nebulized using heated nitrogen in a Z spray source/interface set to electrospray in positive ionization mode for the peptides. The ionized peptides were detected using Tandem Quadropole Mass Spectrometry (MS/MS). The data was acquired using MassLynx (Waters, Milford, Mass.).
HPLC for the peptides and Valacyclovir control were performed with no guard columns, with a flow rate at 0.3 mL/min, with column temperature at 40° C., and autosampler temperature at 10° C. The column for peptides was MacMod ACE 2 Excel C18PFP, 100×2.1-mm, 2.0 μm, and the column for the control was Waters Atlantis T3, 150×2.1-mm, 5.0 μm. The injection loop and volumn for peptides were 50.0 μL and 20.0 μL respectively, and the ones for controls were 20.0 μL and 2.00 μL. For the Mass Spectrometer for the peptides and the Valacyclovir control, the source temperature was set to be 150° C., desolvation temperature was set to be 350° C., and polarity was set to be positive mode of electrospray ionization. Other parameters in HPLC and Mass Spectrometer are shown in Table 2.1, Table 2.2 and Table 3 below.

Data set [3] is described as follows: Pharmacokinetics study in rats, plasma. Format: in vivo. As to conditions: rat; for plasma concentration: individual rats. As to the method: as §2, §1
The next data set relates to γ-secretase. As to conditions: phase III clinical trial, cited from earlier work.
The mark [4] stands for this setting: 10 mg/kg IV and SC, at Cmax and most subsequent time points.

“And” between values parts separate entries of the source, which are not always exact repeats. Identical values can stand only once. Marks after values point to notes of the source that are not given here. Square brackets hold non-standard residues; d marks the D form. Peptide text beside a SMILES is read from it.

Consider `CC(C)C[C@H](NC(=O)[C@H](CCC(=O)O)NC(=O)[C@H](CCC(=O)O)NC(=O)[C@H](CC(=O)O)NC(=O)[C@H](CCC(=O)O)NC(=O)[C@H](CCC(=O)O)NC(=O)[C@H](CCC(=O)O)NC(=O)[C@H](N)CC(=O)O)C(N)=O` [8M1D, dEEEDEEL-NH2] (H-[dD]EEEDEEL-NH2), for which the “reduction in Aβ40” value with Aβ40 (12 hr post dosing) is “about 27%”; in the data set on Aβ40 (24 h post dosing), “about 19%”. Further, the “Percent Decrease in Aβ 40 in Rat Plasma” value is 0.00% in the data set on Aβ40 (0 h), −23.61% in the data set on Aβ40 (6 h), −27.34% in the data set with Aβ40 (12 h) and −19.13% with Aβ40 (24 h). In addition, the “time after dosing at which detectable in CSF” value in data set [1] (10 mg/kg IV and SC) was at least 8 h. The “exposure in CSF compared with P8 (in words)” value in data set [1] (setting [4]) was “better exposures than P8”. Also, the “CSF concentration, Mean IV” value in data set [1] (0 hr) is 0; in data set [1] (0.5 hr) it was 67.8; in data set [1] (1 hr), 80.8; in data set [1] (2 hr), 65; in data set [1] (4 hr), 23.4; in data set [1] (8 hr), 0.913. Besides, the “CSF concentration, Mean IV” value is reported as 0 in data set [1] (12 hr) and 0.261 in data set [1] (24 hr). The “CSF concentration, Mean SC” value in data set [1] (0 hr) was determined as 0; in data set [1] (0.5 hr) it was 50.9; in data set [1] (1 hr), 66.1; in data set [1] (2 hr), 62.9; in data set [1] (4 hr) it was 18.9; in data set [1] (8 hr), 3.85. The “CSF concentration, Mean SC” value in data set [1] (12 hr) and in data set [1] (24 hr) was 0 throughout. Moreover, the “stability in fresh human plasma (in words)” value in data set [2] was “relatively stable”. Besides, in data set [2], the “rate at which metabolized in fresh human plasma (in words)” value is given as “slowest”. Moreover, the “% Remaining” value in data set [2] came to 100%. Besides, the share remaining at 3 h, 1 µM in data set [2] is 115%. In addition, in data set [2], the share remaining at 8 h, 1 µM was determined as 100%. Further, the amount remaining at 24 h, 1 µM in data set [2] turned out to be 89.6%. Besides, the “exposure in plasma compared with P8 (in words)” value in data set [3] (setting [4]) is given as “better exposures than P8”. In addition, the plasma concentration entry in data set [3] (10 mg/kg IV, 0 hr (pre-dose)) is “BQL”; in data set [3] (10 mg/kg IV, 0.167 hr, 10 mg/kg, in ng/mL (unit assumed)), 25,600 and 23,000 and 20,200; in data set [3] (10 mg/kg IV, 0.5 hr, 10 mg/kg, in ng/mL (unit assumed)), 7,140 and 8,630 and 6,650; in data set [3] (10 mg/kg IV, 1 hr, 10 mg/kg, in ng/mL (unit assumed)) it was 1,680 and 2,160 and 1,580; in data set [3] (10 mg/kg IV, 2 hr, 10 mg/kg, in ng/mL (unit assumed)), 215 and 360 and 290; in data set [3] (10 mg/kg IV, 4 hr, 10 mg/kg, in ng/mL (unit assumed)), 25.6 and 16.0 and 17.0. The plasma concentration is 2.93 ^b and 0.805 ^b and 1.48 ^b in data set [3] (10 mg/kg IV, 6 hr, 10 mg/kg); “BQL” in data set [3] (10 mg/kg IV, 8 hr); “BQL” in data set [3] (10 mg/kg IV, 12 hr); “BQL” in data set [3] (10 mg/kg IV, 24 hr); “BQL” in data set [3] (10 mg/kg SC, 0 hr (pre-dose)); 20,500 ^a and 19,100 and 25,900 in data set [3] (10 mg/kg SC, 0.167 hr, 10 mg/kg). Also, the plasma concentration in data set [3] (10 mg/kg SC, 0.5 hr, 10 mg/kg) was 12,300 ^a and 10,900 and 11,800; in data set [3] (10 mg/kg SC, 1 hr, 10 mg/kg, in ng/mL (unit assumed)) it was 5,440 and 4,310 and 3,410; in data set [3] (10 mg/kg SC, 2 hr, 10 mg/kg, in ng/mL (unit assumed)) it was 1,330 and 1,570 and 642; in data set [3] (10 mg/kg SC, 4 hr, 10 mg/kg, in ng/mL (unit assumed)), 49.8 and 75.3 and 43.9; in data set [3] (10 mg/kg SC, 6 hr, 10 mg/kg), 11.4 and 8.83 ^b and 4.66 ^b; in data set [3] (10 mg/kg SC, 8 hr, 10 mg/kg), 1.29 ^b and BQL (2×). For the same compound, the plasma concentration result in data set [3] (10 mg/kg SC, 12 hr) was “BQL”; in data set [3] (10 mg/kg SC, 24 hr), “BQL”.
Take `CC(C)[C@H](O)C(=O)N[C@@H](C)C(=O)N[C@@H]1C(=O)N(C)CCc2ccccc21` [semagacestat]: in the data set with γ-secretase (patients receiving the higher dose), the “functional ability (in words)” value is reported as “significant worsening of functional ability”. For the same compound, the “effect on improving cognitive functions (in words)” value in the data set with γ-secretase (patients) was “no effects on improving cognitive functions”. The “adverse events (in words)” value with γ-secretase was “more adverse events including skin cancers and infections”.
With H-DEEEDEEL-NH2 [8M1, DEEEDEEL-NH2], in data set [2], the “rate at which metabolized in fresh human plasma (in words)” value is reported as “fastest”; the “% Remaining” value was found to be 100%; the share remaining at 3 h, 1 µM turned out to be 87.1%; the amount remaining at 8 h, 1 µM stood at 65.1%. Further, the share remaining at 24 h, 1 µM in data set [2] was 47.1%.
